# “Also recorded” adds a separate entry of the source. Like-named read-outs stand apart in the source and are kept apart here.
# What was measured:
# JLA = test: In vitro cell proliferation assay, continuous drug exposure; format: cell-based; conditions: Homo sapiens; JLA (reduced topoisomerase II), continuous drug exposure 3-5 days
# Text: (§1) The results with the JLA and JLD lines, which have reduced topoisomerase II content as compared to the parental Jurkat line, indicate that the IC50 value of the compound is increased with decreased topoisomerase content. This is also the case for etoposide, amsacrine, DACA and doxorubicin.
# JLD = test: as above; format: cell-based; conditions: Homo sapiens; JLD (reduced topoisomerase II), continuous drug exposure 3-5 days
# Text: as §1
# Jurkat = test: as above; format: cell-based; conditions: Homo sapiens, continuous drug exposure 3-5 days
# Text: as §1
# [1] = tested on: HCT116 human colon carcinoma line, TP53 mutant; test: In vitro cell survival, clonogenic assay; format: cell-based; conditions: p53 mutant HCT116, 6 hours exposure
# Experimental: (§2) Two HCT116 human colon carcinoma lines, one with TP53 wild type status and one with TP53 mutant status, were exposed to the compound of Formula II for 6 hours. The cells were washed free of drug and surviving cells were measured by clonogenic assay. The concentration for maximal reduction of cell survival was 1% for p53 wild-type cells and 5% for p53 mutant cells. The cytotoxicity of the compound of the present invention was also tested in three Jurkat leukaemia lines, two of which, JLA and JLD, are resistant to topoisomerase inhibitors because of low cellular levels of topoisomerase II.
# [2] = tested on: HCT116 human colon carcinoma line, TP53 wild type; test: In vitro cell survival, clonogenic assay; format: cell-based; conditions: p53 wild-type HCT116, 6 hours exposure
# Experimental: as §2
# colon 38 tumours = test: Murine colon 38 tumour response; format: in vivo; conditions: single oral dose (8.9 mg/kg)
# Text: The murine colon-38 carcinoma is a transplantable tumour that has been used extensively in drug development programmes to determine the activity of many different drugs (Goldin A et al. Current results of the screening program at the Division of Cancer Treatment, National Cancer Institute. European Journal of Cancer. 1981. 17(2):129-142). The tumour is implanted subcutaneously as 1-mm^3 fragments and allowed to grow (8 days) to a tumour of approximately 3 mm in diameter before administration of test drugs.
# Plasma pharmacokinetics = format: in vivo, mice; conditions: for AUC: read-out: area under the plasma concentration-time profile for the first 8 hours (AUC)
# Experimental: The plasma pharmacokinetics of the compound of Formula II, were compared following intravenous, intraperitoneal and oral administration at a dose of 8.9 mg/kg (26 μmol/kg). Mice were terminally anaesthetised at various times up to 8 hours after drug administration and blood was taken for preparation of plasma samples. Plasma concentrations of the compound of Formula II were measured by high performance liquid chromatography-mass spectrophometry. The results are shown in FIG. 6, the vertical bars showing the standard deviation of the mean values from three mice per time point.
# As expected from the rate of gastric emptying, the initial increase in plasma and liver drug concentrations occur later after oral administration than they do after intravenous or intraperitoneal administration, but the plasma and tissue half-lives are similar.
# [3] = Plasma and tissue pharmacokinetics; format: in vivo, mice
# Experimental: Plasma and tissue pharmacokinetics of the compound of Formula II, were compared following intraperitoneal administration at a dose of 8.9 mg/kg body weight. Mice were terminally anaesthetised at various times up to 75 hours after drug administration and tissue and blood was taken for preparation of samples. Plasma and tissue concentrations of the compound of Formula II were measured by high performance liquid chromatography-mass spectrophometry. The results are shown in FIG. 8, the vertical bars showing the standard deviation of the mean values from three mice per time point. The concentration of drug in plasma is very low on this scale (<100 nmol/kg), implying a high ratio of the concentration of cell-associated drug to that of external drug
# Plasma and tissue pharmacokinetics, were further investigated following intraperitoneal administration of the compound of Formula II at a dose of 8.9 mg/kg. Mice were terminally anaesthetised at various times up to 75 hours after drug administration and tissue and blood was taken for preparation of samples. Plasma and tissue concentrations of the compound of Formula II were measured by high performance liquid chromatography-mass spectrophometry. The results are shown in FIG. 9, the vertical bars showing the standard deviation of the mean values from three mice per time point. The concentration differential (ie the slope of each plot) indicates the half life of the compound of Formula II in each tissue type and plasma. The half life of the compound of Formula II in various tissue types including liver, kidney, brain, heart and plasma, calculated from points on the concentration time curve, is approximately three hours. The half life of the compound of Formula II in tumour tissue, calculated from points on the concentration time curve, is approximately 9 hours. This is approximately a three-fold increase in the concentration differential in tumour tissue to non-tumour tissue and plasma concentration of Formula II. This effectively leads to an accumulation of the compound of Formula II in tumour tissue relative to other tissue.
# The plasma and tissue pharmacokinetics of a compound of Formula II, were also compared with several well known cancer therapies as shown in FIG. 10. The analytical methods used to obtain data for other therapies varies and was taken from the literature. The AUC (area under the concentration-time curve) values of the compound of Formula II show approximately a 6-7 fold increase in concentration of Formula II in tumour tissue over liver tissue. The AUC values in plasma are negligible. A longer half life (higher concentration differential) in a particular tissue, leads to a larger AUC value (area under the concentration versus time curve). The AUC values provide an indication of the amount of each compound accumulated in a particular tissue or plasma over time.
# The ability of different anticancer drugs to be retained selectively in tumour tissue can also be conveniently compared as the ratio of AUC values for a normal tissue versus a tumour tissue. […] Cancer Chemother Pharmacol. 1996; 38: 417-24), amsacrine and asulacrine (Kestell P, Paxton J W, Evans P C, Young D, Jurlina J L, Robertson I G C, Baguley B C. Disposition of amsacrine and its analogue 9-((2-methoxy-4-[(methylsulfonyl)-amino]phenyl)amino)-N,5-dimethyl-4-acridinecarboxamide (CI-921) in plasma, liver, and Lewis lung tumors in mice. Cancer Res 1990; 50: 503-508) and DACA (Kestell P, Dunlop I, McCrystal M R, Evans B D, Paxton J W, Gamage R S K A, Baguley B C. Plasma pharmacokinetics of DACA (N-[2-(dimethylamino)-ethyl]-acridine-4-carboxamide) in a phase I trial. Cancer Chemother Pharmacol 1999; 44: 45-50). Similar analytical methods, employing high performance liquid chromatography, were used. […]
# [4] = intraperitoneal administration, 8.9 mg/kg, mice
# [5] = intravenous administration, 8.9 mg/kg, mice
# [6] = intraperitoneal 8.9 mg/kg, mice
structure (smiles),measurement,setting,value
"Cc1cccc2cc3c(=O)n(C)cc(C(=O)NCCN(C)C)c3nc12 [Formula II, N-[2-(dimethylamino)ethyl]-2,6 dimethyl-1-oxo-1,2-dihydrobenzo[b]-1,6-naphthyridine-4-carboxamide]",IC50,JLA,38 nM
same,IC50,JLD,53 nM
same,IC50,Jurkat,6.7 nM
same,maximal reduction of cell survival,[1],5%
same,maximal reduction of cell survival,[2],1%
same,response of colon 38 tumours,colon 38 tumours,complete regression; also recorded: single dose cures
same,time-concentration profiles (plasma and liver) for the different routes of administration,"Plasma pharmacokinetics; i.p., i.v. and p.o., non tumour bearing mice",quite comparable
same,maximum plasma concentration,Plasma pharmacokinetics; [4],0.57 µM
same,time at which maximum plasma concentration achieved,Plasma pharmacokinetics; [4],0.5 h
same,maximum plasma concentration,Plasma pharmacokinetics; [5],1.24 µM
same,time at which maximum plasma concentration achieved,Plasma pharmacokinetics; [5],0.08 h
same,AUC,"Plasma pharmacokinetics; mouse, plasma, ip, intraperitoneal administration, 8.9 mg/kg, mice",1.63 µM·h
same,bioavailability,"Plasma pharmacokinetics; mouse, plasma, oral, relative to intraperitoneal administration, 8.9 mg/kg, mice, read-out: bioavailability following oral administration",63%
same,half-life,"Plasma pharmacokinetics; mouse, plasma, all three routes of administration (i.v., i.p., oral), 8.9 mg/kg, mice, read-out: terminal plasma half life (converted)",~3.5 h
same,AUC,"Plasma pharmacokinetics; mouse, plasma, intravenous administration, 8.9 mg/kg, mice",1.99 µM·h
same,AUC,"Plasma pharmacokinetics; mouse, plasma, oral administration, 8.9 mg/kg, mice",1.03 µM·h
same,maximum plasma concentration,"Plasma pharmacokinetics; oral administration, 8.9 mg/kg (26 μmol/kg), mice",0.27 µM
same,time at which maximum plasma concentration achieved,"Plasma pharmacokinetics; oral administration, 8.9 mg/kg, mice",2 h
same,ratio of AUC values (tumour/liver),"[3]; compared with doxorubicin, amsacrine, asulacrine and DACA",clearly superior
same,"half life in liver, kidney, brain, heart and plasma",[3]; [6],approximately three
same,increase in the concentration differential in tumour tissue to non-tumour tissue and plasma,[3]; [6],approximately three
same,concentration of drug in plasma,"[3]; intraperitoneal 8.9 mg/kg, mice, up to 75 hours",< 100 nmol/kg
same,AUC: increase in concentration in tumour tissue over liver tissue,[3]; mice,6-7 fold
same,half-life,"[3]; mouse, ip, colon 38 tumour tissue, intraperitoneal 8.9 mg/kg, mice",~9 h
same,AUC values in plasma,"[3]; relative to tissue AUC, mice",negligible

# From patent US20080248134A1, “Oral compositions, use and combinations of N-[2-(dimethylamino)ethyl]-2,6 dimethyl-1-oxo-1,2-dihydrobenzo[b]-1,6-naphthyridine-4-carboxamide and closely related analogues thereof” (Auckland Uniservices Limited, priority 2005, published 2008)
